Measurements as given in patent US20250195601A1, “TURMERIC OIL ESSENTIAL-OIL BISABOLENE SESQUITERPENOIDS IN THE TREATMENT OF NON-NEURODEGENERATIVE DISEASES” (UNIVERSIDAD DE CUENCA, priority 2023, published 2025).

Legend:
Format in all cases: in vivo, human
[1] = tested on: patient with mixed cerebral palsy, epilepsy, constipation, mental retardation; assay: Clinical course, Case 4; conditions: with baclofen, before turmeric oil
Excerpt: Patient. They were the child of non-consanguineous parents, born of a twin pregnancy by cesarean section at 30 weeks' gestation. The patient had multiple complications in their neonatal period with prolonged mechanical ventilation, including neuro-infection and neonatal seizures.
Central hypotonia and peripheral hypertonia, dystonia and dyskinesia, ROT++++/++, bilateral plantar flexor reflex were present.
No advances regarding […] neurological condition were identified. The pharmacological therapy included baclofen to improve muscle tone and levetiracetam to control seizures.
Scoliosis, retractions, and joint deformities were still visible. Dystonias and dyskinesias were persistent.
In the subsequent 7.5 years, the patient had epileptic seizures of irregular onset and insufficient advances in their motor development. Administration of turmeric oil began with a dose of 27 mg per day.

[2] = tested on: patient with executive functions impairment, epilepsy, mental retardation, attention deficit; assay: Clinical course, Case 1; conditions: before turmeric oil
Protocol: […], due to their academic failure and their refusal to continue taking methylphenidate, it was decided to start using turmeric oil in a dosage of 36 mg/day.
The turmeric oil and two anticonvulsants (valproic acid and clobazam) were administered to the patient.
Conversely, a cognitive enrichment in the patient's profile was evident. This enhancement was reflected in their academic performance and […] general life development. The patient presented seizures relapse and maintained antiepileptic drugs administration.

[3] = tested on: patient with Guillain-Barré syndrome, flaccid tetraplegia; assay: Clinical course and muscle strength, Case 5; conditions: after three weeks of hospitalization, before turmeric oil
Excerpt: Patient. They were the child of non-consanguineous parents. Parents referred that one day the patient woke up but could not walk. Noteworthy, the day before this event, they received a COVID vaccine. The patient was taken to a hospital and evaluated in the emergency room. Demyelinating motor polyradiculoneuropathy of severe degree with distal predominance, more significant in lower extremities was reported after performing electromyography and nerve conduction velocity analysis. On the third day at the hospital, the patient lost walking, sitting, neck control and lower and upper extremities mobility. No mechanical ventilation was required.
Thus, the patient was prostrate, and it was recommended to start administering turmeric oil in a dose of 21.6 mg per day.

CC[C@@H](C(N)=O)N1CCCC1=O [levetiracetam]
seizures [1]: not controlled

COC(=O)C(c1ccccc1)C1CCCCN1 (stereo not drawn) [prolonged-release methylphenidate, methylphenidate]
result of methylphenidate treatment [2]: poor results

gamma globulin
condition at discharge [3]: no improvement
